Laboratory results from US7713960B2, “Inhibition of the Raf/Mek/P-Erk pathway for treating cancer” (University of South Florida, priority 2005, dated 2010).
Structures can show the parent of a compound that is named as a salt.

Key:
[1] = system: A-549 cells; test: Total cellular cAMP measurement, A-549; format: cell-based, human
Method: Total cellular cAMP measurement—The measurement of total cellular cAMP was done using a cAMP Biotrak ™ Enzymeimmunoassay (EIA) system (Amersham Biosciences, Piscataway, N.J.) according to the manufacturer's protocol. Briefly, 2000 cells were plated into each well of a 96 well plate. The next day cells were treated with increasing concentrations of ARA-211 or with vehicle for one hour. Alternatively, MDA-MB-231 cells were pre-treated with antagonists to the α1 (Prazosin, Sigma), α2 (Yohimbine, Sigma), β1 (Metoprolol, Sigma), and β2 (ICI 118.551, Sigma) adrenergic receptors at 100 nM for 15 minutes followed by treatment with 10 μM ARA-211 for 45 minutes. Cells were then lysed directly in the wells using the supplied lysis buffer. The lysate was transferred to a 96-well cAMP ELISA plate, and results were quantified using a Wallac Victor 2 plate reader.

[2] = system: P-Erk 1/2; test: P-Erk 1/2 levels (Western blotting), MDA-MB-231; format: cell-based, human
Method: Western Blotting—Treated cell samples were lysed in 30 mM HEPES, 10 mM NaCl, 5 mM MgCl2, 25 mM NaF, 1 mM EGTA, 1% Triton-X-100, 10% Glycerol, 2 mM Sodium orthovanidate, 10 μg/mL aprotinin, 10 μg/mL soybean trypsin inhibitor, 25 μg/mL leupeptin, 2 mM phenylmethylsulfonylfluoride (PMSF), 6.4 mg/mL p-nitrophenylphosphate for 30 minutes at 4° C., and proteins run on SDS-PAGE gels then transferred to nitrocellulose membranes. Membranes were blocked in either 5% milk in PBS, pH 7.4, containing 0.1% Tween-20 (PBS-T) or 1% BSA in TBS, pH 7.5, containing 0.1% Tween-20 (TBS-T). Phospho-STAT3 and phospho-AKT antibodies were diluted in 1% BSA in TBS-T while phospho-c-Raf, phospho-Mek, and phospho-p44/p42 MAPK antibodies (Cell Signaling) were diluted in 5% milk in PBS-T for either 1 hour at room temperature or overnight at 4° C. HRP-conjugated secondary antibodies (Jackson ImmunoResearch, West Grove, Pa.) were diluted in 5% milk in PBS-T or TBS-T at a 1:1000 dilution for one hour at room temperature. Western blots results were visualized using enhanced chemiluminescence. Stripping of the membranes for reblotting was done using stripping buffer (62.5 mM Tris pH 7.6, 2% SDS, 0.7% 2-mercaptoethanol) at 50° C. for 30 minutes.

[3] = system: ACHN cells; test: Anchorage-dependent growth (MTT assay), ACHN; format: cell-based, human
Method: MTT Assay—2000 cells per well were plated into 96 well tissue culture plates, and the cells were allowed to attach overnight at 37° C. with 10% CO2. Cells were then treated with increasing concentrations of ARA-211, or vehicle (DMSO) and incubated for four days. At that time treatment medium was removed and replaced with 100 μl of lmg/ml MTT (Sigma-Aldrich, St. Louis, Mo.) in media and incubated at 37° C., 10% CO2 for 3 hours. After 3 hours the MTT media was removed and replaced with 100 μl/well of DMSO, rocked at room temperature for 5 minutes, then absorbance read at 540 nm on a micro-plate reader.

[4] = system: MDA-MB-231 cells; test: Alamar Blue proliferation assay, MDA-MB-231; format: cell-based, human; settings: MDA-MB-231 with CA-Mek; 10 μM, 48 hours
Method: Cell Lines and Transfections—All cell lines used were obtained from American Type Tissue Collection (ATCC), (Manassas, Va.), or from the DCTD Tumor Repository, (Frederick, Md.). Propagation was carried out according to ATCC protocols. Propagation media was obtained from Invitrogen Corporation (Carlsbad, Calif.). DNA transfections were carried out using TransIT-LT1 transfection reagent (Takara Mirus, Madison, Wis.) according to the manufacturer's protocol. Briefly, 4×10^5 MDA-MB-231 cells were grown to approximately 70% confluency in medium supplemented with 10% FBS (Atlanta Biologicals, Atlanta, Ga.) in the absence of antibiotics. For transfection, LT1 was pre-incubated in 200 μl per transfection in Opti-MEM (Invitrogen) for 20 minutes prior to addition of plasmid. […]
Alamar Blue proliferation assay—For proliferation assays using exogenous constitutively activated MEK or the B2AR antagonist ICI-118.551, Alamar Blue metabolism assay used to determine cell viability according to the manufacturers protocol (Biosource, Camarillo, Calif.). […] Media/Alamar Blue was removed from the cells and aliquoted into 96 well plates (100 μl per well) and fluorescence read on a Wallac Victor 2 plate reader at excitation 540 nm, and emission 615 nm.

[5] = system: A-549 cells; test: Nude mouse xenograft model, A-549 (s.c.); format: in vivo, nude mice; settings: A-549 xenograft; i.p. 75 mpk/day
From the text: Anti-tumor activity in nude mouse xenograft model—Female athymic nude (nu/nu) mice, 5-6 weeks old, were purchased from Charles River (Wilmington, Mass.) and allowed to acclimate in the animal facility for one week. After harvesting, A-549, SNB-19, ACHN, and HCT-116 cells were, resuspended in sterile PBS, and injected s.c. into the right and left flanks (10×10^6 cells per flank) of the mice as previously described (Sun et al., 2005). For MDA-MB-231, cells were harvested and resuspended in PBS (10×10^6 cells per 50 μl) and an equal volume of Matrigel (BD Biosciences, San Jose, Calif.). 100 μl of MDA-MB-231 cells in PBS/Matrigel were injected s.c. into the mammary fat pads between the 2nd and 3rd nipples on each side of the mice. Once the tumors reached approximately 200-300 mm^3 the mice were randomized and treated i.p. with 0.1 ml vehicle (PBS) or ARA-211. Each treatment group consisted of five mice (2 tumors per mouse, a total of 10 tumors). The tumor volumes were determined by measuring the length (l) and width (w) and calculating the volume (V=w^2l/2). Statistical significance between the control and treated animals was determined using a student's t test.

Q: Which results are given for `CC(C)(C)NCC(O)c1ccc(O)c(CO)n1` (stereo not shown) [ARA-211, 2-hydroxymethyl-3-hydroxy-6-(1-hydroxy-2-tert-butylaminoethyl) pyridine, dihydrochloride]?
A: cAMP (Fold Induction) [1]: 1.3 ± 0.3 Fold; P-Erk ½ (% Inhibition) ([2]; MDA-MB-231): 100%; levels of P-Erk 1/2 ([2]; MDA-MB-231, at 10 nM): suppressed potently; inhibition of P-Erk 1/2 in cells ectopically expressing constitutively activated Mek-1 ([2]; MDA-MB-231 with CA-Mek, 10 μM, 48 hours): resistant; Anchorage Dependent Growth (% Inhibition) [3]: 62 ± 12.7%; inhibition of tumor growth in cells ectopically expressing constitutively activated Mek-1 [4]: resistant; growth of tumors [5]: is not affected
